We go through 37 molecules from patent US9512128B2 (BAYER CROPSCIENCE AG, priority 2012, dated 2016).

Like-named read-outs stand apart in the source and are kept apart here.

Series [1] has as its system southern root-knot nematode (Meloidogyne incognita). The experiment in a line: Meloidogyne incognita test (MELGIN). In kind it is in vivo. As to conditions: application rate 20 ppm, after 14 days, lettuce. How it is done: 5. Meloidogyne incognita Test (MELGIN) • Solvent: 125.0 parts by weight of acetone To prepare a suitable active compound preparation, 1 part by weight of active compound is mixed with the stated amount of solvent and the concentrate is diluted with water to the desired concentration. Vessels are filled with sand, active compound solution, an egg/larvae suspension of the southern root-knot nematode (Meloidogyne incognita) and lettuce seeds. The lettuce seeds germinate and the plants develop. On the roots, galls are formed. After 14 days, the nematicidal effect in % is determined by the formation of galls. 100% means that no galls have been found; 0% means that the number of galls on the treated plants corresponds to the untreated control.

A short description of series [2]: log P by HPLC on reversed-phase columns (C 18), EEC directive 79/831 Annex V.A8. The settings on record: for logP[a]: method [a]; for logP[b]: method [b]; for chromatographic logP: reversed-phase C18 HPLC column. It counts as physicochemical. An outline of the steps:
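Measured by reversed-phase C18 HPLC (LC-MS) with a linear 10→95% acetonitrile gradient. Acidic: pH 2.7, 0.1% formic acid. Neutral: pH 7.8, 0.001 M ammonium bicarbonate.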

For series [3], the system named is greenhouse red spider mite (Tetranychus urticae). Kind of series: Tetranychus urticae spray test, OP-resistant (TETRUR). In kind it is in vivo. As to conditions: application rate 500 g/ha, after 6 days, bean leaf discs. Here is the method: 4. Tetranychus urticae Spray Test, OP-Resistant (TETRUR)
• Solvents: 78.0 parts by weight of acetone • 1.5 part by weight of dimethylformamide • Emulsifier: 0.5 part by weight of alkylaryl polyglycol ether
To produce a suitable preparation of active compound, 1 part by weight of active compound is mixed with the stated amounts of solvents and emulsifier, and the concentrate is diluted with emulsifier-containing water to the desired concentration.
Discs of bean leaves (Phaseolus vulgaris) which are infested by all stages of the greenhouse red spider mite (Tetranychus urticae) are sprayed with an active compound preparation of the desired concentration.
After 6 days, the efficacy in % is determined. 100% means that all of the spider mites have been killed; 0% means that none of the spider mites have been killed.

With `Cc1cc(F)c(-n2cnc3c(cnn3CC(F)(F)F)c2=O)cc1[S+]([O-])CC(F)(F)F` (racemic) [Compound 18], in series [1], the “nematicidal effect in % (formation of galls)” value (“nematicidal effect in %” for short) was found to be 90%. Besides, in series [2], the “logP[a]” value was determined as 2.34 and the “logP[b]” value was found to be 2.33.

In the case of `Cn1ncc2c(=O)n(-c3ccc(C#N)c([S+]([O-])CC(F)(F)F)c3)cnc21` (racemic) [Compound 26], in series [2], the “logP[a]” value is given as 1.51 and the “logP[b]” value was found to be 1.56. For the same molecule, in series [3], the “efficacy in % (spider mites killed)” value was 90%.

`Cc1nn(C)c2ncn(-c3ccc(C(F)(F)F)c([S+]([O-])CC(F)(F)F)c3)c(=O)c12` (racemic) [Compound 32]: the “nematicidal effect in %” value in series [1] is recorded as 90%. In addition, in series [2], the “logP[a]” value turned out to be 2.39 and the “logP[b]” value amounted to 2.34.

With `Cc1c2c(=O)n(-c3ccc(Cl)c([S+]([O-])CC(F)(F)F)c3)cnc2nn1C` (racemic) [Compound 49], the “nematicidal effect in %” value in series [1] amounted to 90%. Besides, in series [2], the “logP[a]” value is 1.78 and the “logP[b]” value turned out to be 1.75.

Regarding `CCn1cnc2c(=O)n(-c3cc([S+]([O-])CC(F)(F)F)c(C)cc3F)cnc21` (racemic) [Compound 54], in series [2], the “logP[a]” value worked out at 1.60 and the “logP[b]” value amounted to 1.59. For the same molecule, the “efficacy in % (spider mites killed)” value in series [3] is 100%.

For `Cc1cc(F)c(-n2c(C(F)(F)F)nc3c(cnn3CC(F)(F)F)c2=O)cc1SCC(F)(F)F` [Compound 19], the “nematicidal effect in %” value in series [1] worked out at 90%. Besides, in series [2], the “logP[a]” value is 4.20 and the “logP[b]” value amounted to 4.10.

In the case of `Cc1cc(F)c(-n2c(C)nc3c(cnn3CC(F)(F)F)c2=O)cc1SCC(F)(F)F` [Compound 20], in series [2], the “logP[a]” value is recorded as 3.50 and the “logP[b]” value was 3.44. Besides, the “efficacy in % (spider mites killed)” value in series [3] is 90%.

As to `Cc1cc(F)c(-n2cnc3cnn(C)c3c2=O)cc1SCC(F)(F)F` [Compound 38], in series [2], the “logP[a]” value is 2.76 and the “logP[b]” value was 2.76. In series [3], the “efficacy in % (spider mites killed)” value is 90%.

As to `Cc1cc(F)c(-n2c(C)nc3cnn(C)c3c2=O)cc1SCC(F)(F)F` [Compound 39], in series [2], the “logP[a]” value worked out at 2.94 and the “logP[b]” value was found to be 2.87. In addition, the “efficacy in % (spider mites killed)” value in series [3] is on record as 90%.

As for `Cc1cc(F)c(-n2c(C(F)(F)F)nc3nn(C)cc3c2=O)cc1[S+]([O-])CC(F)(F)F` (stereo not shown) [Compound 43], the “nematicidal effect in %” value in series [1] is 90%.

On to `Cc1c2c(=O)n(-c3ccc(C(F)(F)F)c(SCC(F)(F)F)c3)cnc2nn1C` [Compound 45], for which, in series [1], the “nematicidal effect in %” value stood at 80%. Besides, in series [2], the “logP[a]” value is 2.70 and the “logP[b]” value is on record as 2.63.

As to `Cc1cc(F)c(-n2cnc3c(ncn3C)c2=O)cc1SCC(F)(F)F` [Compound 52], in series [2], the “logP[a]” value is on record as 2.17 and the “logP[b]” value stood at 2.11. Besides, the “efficacy in % (spider mites killed)” value in series [3] came out at 90%.

As to `O=c1c2ncsc2ncn1-c1cc(SCC(F)(F)F)c(Cl)cc1Cl` [Compound 63], the “nematicidal effect in %” value in series [1] is reported as 90%. Further, in series [2], the “logP[a]” value is on record as 2.83 and the “logP[b]” value came out at 2.77.

Turning to `Cc1cc(F)c(-n2c(C)nc3scnc3c2=O)cc1SCC(F)(F)F` [Compound 64], the “nematicidal effect in %” value in series [1] worked out at 90%. Further, in series [2], the “logP[a]” value was determined as 2.72 and the “logP[b]” value was 2.70.

For the molecule `Cc1cc(C)c([S+]([O-])CC(F)(F)F)cc1-n1cnc2scnc2c1=O` (stereo not shown) [Compound 66], in series [2], the “logP[a]” value worked out at 1.6 and the “logP[b]” value was 1.62. The “efficacy in % (spider mites killed)” value in series [3] was determined as 90%.

`Cc1cc(F)c(-n2c(C)nc3scnc3c2=O)cc1[S+]([O-])CC(F)(F)F` (stereo not shown) [Compound 68]: in series [2], the “logP[a]” value was determined as 1.72 and the “logP[b]” value stood at 1.70. In addition, the “efficacy in % (spider mites killed)” value in series [3] was found to be 90%.

With `Cc1nc2c(=O)n(-c3cc(SCC(F)(F)F)c(C)cc3F)cnc2s1` [Compound 70], the “nematicidal effect in %” value in series [1] came to 90%. In series [2], the “logP[a]” value is 2.80 and the “logP[b]” value amounted to 2.74.

Consider `Cc1cc(C)c(-n2cnc3ncsc3c2=O)cc1SCC(F)(F)F` [Compound 76], for which, in series [2], the “logP[a]” value was 2.62 and the “logP[b]” value was 2.59. Moreover, in series [3], the “efficacy in % (spider mites killed)” value is recorded as 90%.

For `O=c1c2ccsc2ncn1-c1ccc(Cl)c([S+]([O-])CC(F)(F)F)c1` (stereo not shown) [Compound 87], in series [1], the “nematicidal effect in %” value was determined as 100%. For the same molecule, in series [2], the “logP[a]” value was 2.20 and the “logP[b]” value amounted to 2.17.

For the molecule `Cc1cc(C)c(-n2cnc3sccc3c2=O)cc1SCC(F)(F)F` [Compound 91], in series [2], the “logP[a]” value is reported as 3.34 and the “logP[b]” value turned out to be 3.25. Further, the “efficacy in % (spider mites killed)” value in series [3] was found to be 100%.

As for `Cc1cc(F)c(-n2cnc3sccc3c2=O)cc1SCC(F)(F)F` [Compound 92], in series [2], the “logP[a]” value was 3.22 and the “logP[b]” value was 3.14. Further, the “efficacy in % (spider mites killed)” value in series [3] is reported as 100%.

For the molecule `Cc1cc(C)c([S+]([O-])CC(F)(F)F)cc1-n1cnc2sccc2c1=O` (stereo not shown) [Compound 97], the “nematicidal effect in %” value in series [1] is given as 90%. For the same molecule, in series [2], the “logP[a]” value was 2.15 and the “logP[b]” value was determined as 2.11.

Regarding `Cc1cc(F)c(-n2cnc3ccsc3c2=O)cc1SCC(F)(F)F` [Compound 108], the “nematicidal effect in %” value in series [1] is given as 90%. Moreover, in series [2], the “logP[a]” value amounted to 3.01 and the “logP[b]” value stood at 2.90.

For `Cc1cc(F)c(-n2cnc3ccsc3c2=O)cc1[S+]([O-])CC(F)(F)F` (stereo not shown) [Compound 113], in series [1], the “nematicidal effect in %” value was found to be 90%. For the same molecule, in series [2], the “logP[a]” value came out at 2.35 and the “logP[b]” value is given as 2.31.

Take `Cc1cc(F)c(-n2cnc3c(Cl)csc3c2=O)cc1[S+]([O-])CC(F)(F)F` (stereo not shown) [Compound 114]: in series [1], the “nematicidal effect in %” value came out at 90%. In series [2], the “logP[a]” value is given as 2.43 and the “logP[b]” value is 2.38.

In the case of `Cc1ccc(-n2cnc3nsc(C(C)(C)C)c3c2=O)cc1SCC(F)(F)F` [Compound 116], in series [2], the “logP[a]” value is listed as 4.05 and the “logP[b]” value came to 3.96. In addition, the “efficacy in % (spider mites killed)” value in series [3] was found to be 90%.

Take `CC(C)(C)c1snc2ncn(-c3ccc(Cl)c(SCC(F)(F)F)c3)c(=O)c12` [Compound 117]: in series [2], the “logP[a]” value was determined as 4.06 and the “logP[b]” value was found to be 3.97. Also, in series [3], the “efficacy in % (spider mites killed)” value is reported as 90%.

`Cc1cc(F)c(-n2nnc3c(cnn3C)c2=O)cc1SCC(F)(F)F` [Compound 119, 3-{2-Fluoro-4-methyl-5-[(2,2,2-trifluoroethyl)sulphanyl]phenyl}-7-methyl-3,7-dihydro-4H-pyrazolo[3,4-d][1,2,3]triazin-4-one]: the chromatographic logP turned out to be 3.16 in series [2] (pH 2.7, acidic range, pH 2.7, 0.1% aqueous formic acid / acetonitrile, read-out: log P[a]); 3.16 in series [2] (pH 2.7, method [a], read-out: logP[a]); 3.13 in series [2] (pH 7.8, method [b], read-out: logP[b]); 3.13 in series [2] (pH 7.8, neutral range, pH 7.8, 0.001 molar aqueous ammonium bicarbonate / acetonitrile, read-out: log P[b]). For the same molecule, the “efficacy in % (spider mites killed)” value in series [3] was 90%.

Take `Cc1ccc(-n2cnc3cnn(C)c3c2=O)cc1[S+]([O-])CC(F)(F)F` (stereo not shown) [Compound 142]: the “nematicidal effect in %” value in series [1] amounted to 100%. The “efficacy in % (spider mites killed)” value in series [3] is reported as 100%.

In the case of `CCc1nc2cnn(C)c2c(=O)n1-c1cc(SCC(F)(F)F)c(C)cc1F` [Compound 146], the “nematicidal effect in %” value in series [1] worked out at 90%.

Regarding `CCc1nc2cnn(C)c2c(=O)n1-c1cc([S+]([O-])CC(F)(F)F)c(C)cc1F` (stereo not shown) [Compound 147], in series [1], the “nematicidal effect in %” value was determined as 100%. Besides, the “efficacy in % (spider mites killed)” value in series [3] is on record as 100%.

Regarding `Cn1ncc2ncn(-c3cc(SCC(F)(F)F)c(Cl)cc3F)c(=O)c21` [Compound 148], in series [1], the “nematicidal effect in %” value is on record as 100%. In series [3], the “efficacy in % (spider mites killed)” value is 100%.

Take `Cc1nc2cnn(C)c2c(=O)n1-c1cc(SCC(F)(F)F)c(Cl)cc1F` [Compound 149]: in series [1], the “nematicidal effect in %” value was determined as 100%. The “efficacy in % (spider mites killed)” value in series [3] is 100%.

As to `Cc1cc(Cl)c(-n2nnc3cnn(C)c3c2=O)cc1[S+]([O-])CC(F)(F)F` (stereo not shown) [Compound 153], in series [1], the “nematicidal effect in %” value came out at 100%. Besides, in series [3], the “efficacy in % (spider mites killed)” value was found to be 90%.

Consider `Cc1nc2cnn(C)c2c(=O)n1-c1cc([S+]([O-])CC(F)(F)F)c(Cl)cc1F` (stereo not shown) [Compound 155], for which the “nematicidal effect in %” value in series [1] is on record as 100%. For the same molecule, the “efficacy in % (spider mites killed)” value in series [3] is listed as 90%.

In the case of `Cc1cc(Cl)c(-n2c(C)nc3cnn(C)c3c2=O)cc1[S+]([O-])CC(F)(F)F` (stereo not shown) [Compound 157], the “nematicidal effect in %” value in series [1] worked out at 90%. For the same molecule, in series [3], the “efficacy in % (spider mites killed)” value is 100%.

Regarding `Cc1cc(F)c(-n2c(C)nc3cnn(CC4CC4)c3c2=O)cc1SCC(F)(F)F` [Compound 168], in series [1], the “nematicidal effect in %” value turned out to be 90%.
